# Article PMC10914731, “Homo-BacPROTAC-induced degradation of ClpC1 as a strategy against drug-resistant mycobacteria” (Nature Communications, 2024)
# Several values for one entry are separate records, joined by “and”; a condition that tells them apart may be missing. Equal values may be shown once. Read-outs that look alike come from different tables or passages of the source. Where a SMILES comes first, the peptide text is derived from it. [ ]: non-standard residue; d: D form. Trp(1-(1,1-Me2-allyl)) = C=CC(C)(C)n1cc(C[C@H](N)C(=O)O)c2ccccc21; Ala(3R-Me,3-isobutenyl) = CC(C)=C[C@@H](C)[C@H](N)C(=O)O; NMeLeu(5-OH,4R) = CN[C@@H](C[C@@H](C)CO)C(=O)O; Phe(βR-OMe) = CO[C@H](c1ccccc1)[C@H](N)C(=O)O; NMeL = CN[C@@H](CC(C)C)C(=O)O
# How the values were obtained:
# [1] = type: in vitro ADME, Rat; settings: for Microsomal Stability Rat: clearance in microsomes
# In short: (§1)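 Compound at 1 µmol/l incubated with 0.5 mg/ml liver microsomes in 100 mM Tris-HCl pH 7.5, 6.5 mM MgCl2, 1 mM NADPH, 37 °C; acetonitrile-quenched at multiple time points, measured by HPLC-MS/MS. First-order half-lives converted to clearance as %Qh via well-stirred liver model.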
# [2] = target: ClpC1 NTD protein (M. tuberculosis) (Mycobacterium tuberculosis, UniProt P9WPC9); assay: biochemical; type: binding
# Chain of ClpC1 NTD protein (M. tuberculosis) (P9WPC9 1-156, looked up, natural form): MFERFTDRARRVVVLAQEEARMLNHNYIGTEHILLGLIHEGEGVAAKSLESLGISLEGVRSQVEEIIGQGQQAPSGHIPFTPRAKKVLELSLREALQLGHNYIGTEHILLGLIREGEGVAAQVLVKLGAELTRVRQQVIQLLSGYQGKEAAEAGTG
# [3] = Microsomal stability, human; type: in vitro ADME; settings: for Microsomal Stability Human: clearance in microsomes
# In short: as §1
# [4] = tested on: M. tuberculosis H37Rv (ATCC 27294); assay: microbe, parasite or virus in culture; type: cell-based
# Msm 607 = assay: microbe, parasite or virus in culture; type: cell-based; settings: for Msm 607 MIC: single determinations
# [5] = type: in vitro ADME, Mice; settings: for Microsomal Stability Mice: clearance in microsomes
# In short: as §1
# [6] = tested on: Mtb H37Rv in THP-1 macrophages; assay: Intracellular MIC assay in THP-1 macrophages; type: cell-based, Mycobacterium tuberculosis; parameters: Emax: unit not given here
# [7] = target: ClpC1-NTD substrate, M. tuberculosis ClpC1P1P2 (Mycobacterium tuberculosis, UniProt P9WPC9); assay: biochemical; type: biochemical; settings: Mtb
# Chain of ClpC1-NTD substrate, M. tuberculosis ClpC1P1P2 (P9WPC5 whole entry): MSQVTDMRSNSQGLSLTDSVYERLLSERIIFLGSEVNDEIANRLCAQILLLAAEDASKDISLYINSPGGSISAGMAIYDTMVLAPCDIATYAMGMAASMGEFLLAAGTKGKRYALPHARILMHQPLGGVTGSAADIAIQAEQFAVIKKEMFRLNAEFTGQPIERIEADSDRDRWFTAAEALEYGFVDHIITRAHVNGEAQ
# Chain of ClpC1-NTD substrate, M. tuberculosis ClpC1P1P2 (P9WPC9 whole entry): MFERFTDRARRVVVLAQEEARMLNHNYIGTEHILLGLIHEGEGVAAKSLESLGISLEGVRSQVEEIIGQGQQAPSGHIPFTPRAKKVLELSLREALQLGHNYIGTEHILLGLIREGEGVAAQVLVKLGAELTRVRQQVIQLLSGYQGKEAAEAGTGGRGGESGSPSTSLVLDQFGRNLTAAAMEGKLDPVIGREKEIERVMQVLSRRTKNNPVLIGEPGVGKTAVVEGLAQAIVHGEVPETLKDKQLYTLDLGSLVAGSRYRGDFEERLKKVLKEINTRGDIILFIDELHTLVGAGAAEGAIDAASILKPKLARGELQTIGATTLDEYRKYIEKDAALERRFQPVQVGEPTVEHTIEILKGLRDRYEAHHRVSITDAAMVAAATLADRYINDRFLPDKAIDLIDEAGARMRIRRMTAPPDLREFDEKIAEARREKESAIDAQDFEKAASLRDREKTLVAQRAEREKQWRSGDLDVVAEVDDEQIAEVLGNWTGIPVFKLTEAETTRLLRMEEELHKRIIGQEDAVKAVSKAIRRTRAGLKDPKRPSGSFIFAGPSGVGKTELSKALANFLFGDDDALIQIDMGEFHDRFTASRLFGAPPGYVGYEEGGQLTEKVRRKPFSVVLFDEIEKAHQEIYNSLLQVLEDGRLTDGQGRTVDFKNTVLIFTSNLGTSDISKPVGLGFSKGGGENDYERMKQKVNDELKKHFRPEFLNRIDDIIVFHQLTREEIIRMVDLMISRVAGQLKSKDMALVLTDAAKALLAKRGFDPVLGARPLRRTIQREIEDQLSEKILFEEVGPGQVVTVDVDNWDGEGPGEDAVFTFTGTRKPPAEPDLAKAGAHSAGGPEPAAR
# Chain of ClpC1-NTD substrate, M. tuberculosis ClpC1P1P2 (P9WPC3 whole entry, further chain): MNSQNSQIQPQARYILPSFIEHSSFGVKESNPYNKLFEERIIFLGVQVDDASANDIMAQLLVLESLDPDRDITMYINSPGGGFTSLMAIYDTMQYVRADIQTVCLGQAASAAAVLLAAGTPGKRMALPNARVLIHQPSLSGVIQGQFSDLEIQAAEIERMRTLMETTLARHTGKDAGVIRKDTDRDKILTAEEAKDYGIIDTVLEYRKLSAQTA
# [8] = Hepatocyte stability, mice; type: in vitro ADME; settings: mouse, pH 7.4
# In short: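 Parent depletion by HPLC-MS/MS in mouse hepatocyte suspension (50% serum, ~1 million cells/mL) with 1 µM compound over up to 6 h at 37 °C. Half-lives were scaled to % Qh using the well-stirred liver model.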
# [9] = type: in vitro ADME, Rat; settings: rat, pH 7.4
# [10] = target: His6-tagged ClpC1-NTD substrate, M. smegmatis ClpC1P1P2 (UniProt A0R574+P9WPC9); assay: biochemical; type: biochemical; settings: for DC50: Msm; for % Response / ClpC1-NTD peak area: Figure 4a source data, well replicates
# Chain of His6-tagged ClpC1-NTD substrate, M. smegmatis ClpC1P1P2 (P9WPC9 1-156, looked up, natural form): as the sequence (P9WPC9 1-156, looked up, natural form) above
# Chain of His6-tagged ClpC1-NTD substrate, M. smegmatis ClpC1P1P2 (A0R574 whole entry): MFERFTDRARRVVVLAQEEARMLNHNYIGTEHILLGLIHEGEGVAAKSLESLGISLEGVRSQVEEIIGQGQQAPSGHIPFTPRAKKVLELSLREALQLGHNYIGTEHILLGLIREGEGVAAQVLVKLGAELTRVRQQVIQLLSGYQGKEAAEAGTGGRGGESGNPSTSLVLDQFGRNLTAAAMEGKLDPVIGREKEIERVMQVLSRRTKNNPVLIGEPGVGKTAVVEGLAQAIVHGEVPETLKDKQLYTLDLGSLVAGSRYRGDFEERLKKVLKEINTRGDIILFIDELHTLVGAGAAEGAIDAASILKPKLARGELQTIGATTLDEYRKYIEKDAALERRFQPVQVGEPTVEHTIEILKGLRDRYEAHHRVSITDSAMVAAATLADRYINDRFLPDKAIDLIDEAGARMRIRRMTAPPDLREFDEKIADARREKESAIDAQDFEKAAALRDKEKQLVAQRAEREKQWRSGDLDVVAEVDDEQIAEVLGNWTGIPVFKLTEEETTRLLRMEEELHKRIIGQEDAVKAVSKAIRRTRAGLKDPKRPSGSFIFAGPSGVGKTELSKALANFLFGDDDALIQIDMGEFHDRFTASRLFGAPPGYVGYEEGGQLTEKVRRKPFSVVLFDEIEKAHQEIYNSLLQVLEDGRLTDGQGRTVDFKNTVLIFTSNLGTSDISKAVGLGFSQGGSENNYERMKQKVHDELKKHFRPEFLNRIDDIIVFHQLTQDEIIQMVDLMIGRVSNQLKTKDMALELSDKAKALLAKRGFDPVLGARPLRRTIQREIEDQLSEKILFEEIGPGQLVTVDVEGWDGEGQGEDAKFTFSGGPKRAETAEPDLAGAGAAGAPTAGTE
# Caco-2 monolayers = assay: in vitro; settings: human, Caco-2
# In short: (§2)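 Permeability across Caco-2 monolayers was measured in both directions, apical-to-basolateral and basolateral-to-apical, in 10^-6 cm s-1. Efflux ratio = P(B−A)/P(A−B). Intrinsic permeability is the mean of P(A−B) and P(B−A).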
# in vitro = settings: human
# In short: as §2
# [11] = type: in vitro ADME, Human; settings: human, pH 7.4
# [12] = target: endogenous ClpC1 in Msm #607 cells (Mycolicibacterium smegmatis, UniProt A0R574); type: cell-based, M. smegmatis
# Chain of endogenous ClpC1 in Msm #607 cells (A0R574 whole entry): as above
# [13] = SPR (Supplementary Table 1), read-out: KD ClpC1-NTD Mean ± SD
# [14] = SPR, single independent measurements, read-out: KD ClpC1-NTD
# [15] = Mycobacterium tuberculosis, Mtb H37Rv (Supplementary Table 2), read-out: MIC Mtb
# [16] = Mycobacterium tuberculosis, single determinations, read-out: Mtb MIC
# [17] = single determinations, read-out: Mtb MIC
# [18] = Mycolicibacterium smegmatis, 607, read-out: MIC Msm 607
# [19] = Mycolicibacterium smegmatis, 607, read-out: Msm 607 MIC, single determinations
# [20] = mean of the measurements, read-out: DC50, Mean
structure (smiles),measurement,setting,value
CO[C@H](c1ccccc1)[C@@H]1NC(=O)[C@H](C)NC(=O)[C@H](C[C@@H](C)CO)N(C)C(=O)[C@H](Cc2cn(Cc3cn(CCOCCOCCOCCn4cc(Cn5cc(C[C@@H]6NC(=O)[C@H](C(C)C)NC(=O)[C@H](CC(C)C)N(C)C(=O)[C@H](C(C)C)NC(=O)[C@H]([C@H](OC)c7ccccc7)NC(=O)[C@H](C)NC(=O)[C@H](C[C@@H](C)CO)N(C)C6=O)c6ccccc65)nn4)nn3)c3ccccc23)NC(=O)[C@H](C(C)C)NC(=O)[C@H](CC(C)C)N(C)C(=O)[C@H](C(C)C)NC1=O [Compound 7],Microsomal Stability Rat QH,[1],41.7% and 36.7%
same,Microsomal Stability Rat,[1],40 %Qh
same,Kd,[2]; [13],0.46 ± 0.05 nM
same,koff,"[2]; SPR dissociation rate constant, read-out: koff ClpC1-NTD Mean ± SD",0.001 s⁻¹
same,koff ClpC1-NTD,"[2]; SPR, single independent measurements",0.001 s⁻¹ and 0.0008 s⁻¹ and 0.0006 s⁻¹
same,Kd,[2]; [14],0.473 nM and 0.459 nM and 0.508 nM and 0.398 nM
same,koff,"[2]; SPR, single independent measurements, read-out: koff ClpC1-NTD",0.001 s⁻¹
same,Microsomal Stability Human QH,[3],> 88.4% and 86.5%
same,Microsomal Stability Human,[3],88 %Qh
same,MIC,[4]; [15],0.1 µM
same,MIC,[4]; [16],0.098 µM
same,MIC,[4]; [17],0.156 µM
same,MIC,Msm 607; [18],1.4 ± 0.2 µM
same,MIC,Msm 607; [19],1.56 µM
same,Msm 607 MIC,Msm 607,1.250 µM
same,Microsomal Stability Mouse QH,[5],58.9% and 48.2%
same,Microsomal Stability Mice,[5],53 %Qh
same,Emax,[6],1.22
same,intracellular viable mycobacteria,"[6]; 0.19µM, Day 4, well replicates",5.34 log10 cfu/ml
same,intracellular viable mycobacteria,"[6]; 0.19µM, Day 7, well replicates",5.68 log10 cfu/ml
same,intracellular viable mycobacteria,"[6]; 0.781µM, Day 4, well replicates",4.98 log10 cfu/ml
same,intracellular viable mycobacteria,"[6]; 0.781µM, Day 7, well replicates",4.98 log10 cfu/ml
same,intracellular viable mycobacteria,"[6]; 3.125µM, Day 4, well replicates",4.75 log10 cfu/ml
same,intracellular viable mycobacteria,"[6]; 3.125µM, Day 7, well replicates",4.56 log10 cfu/ml
same,intracellular viable mycobacteria,"[6]; 50µM, Day 4, well replicates",4.39 log10 cfu/ml and 4.51 log10 cfu/ml
same,intracellular viable mycobacteria,"[6]; 50µM, Day 7, well replicates",3.96 log10 cfu/ml
"C=CC(C)(C)n1cc(C[C@@H]2NC(=O)[C@H]([C@H](C)C=C(C)C)NC(=O)[C@H](CC(C)C)N(C)C(=O)[C@H](C(C)C)NC(=O)[C@H]([C@H](OC)c3ccccc3)NC(=O)[C@H](C)NC(=O)[C@H](C[C@@H](C)CO)N(C)C2=O)c2ccccc21 [dCymC] (cyclo([Trp(1-(1,1-Me2-allyl))][NMeLeu(5-OH,4R)]A[Phe(βR-OMe)]V[NMeL][Ala(3R-Me,3-isobutenyl)]))",DC50,"[7]; Measurement 1-4, read-out: DC50, single measurements",> 100000 nM
same,DC50,[7]; [20],> 100000 nM
same,Hepatocyte Mice,[8],46 %Qh
same,Hepatocyte Rat,[9],55 %Qh
same,Hepatocyte Stability Rat QH,[9],55.000%
same,DC50,"[10]; Measurement 1-6, read-out: DC50, single measurements",> 100000 nM
same,DC50,[10]; [20],> 100000 nM
same,degradation of the His6-tagged ClpC1-NTD substrate,"[10]; cell-free, result in words",did not cause any degradation
same,% Response,[10]; conc. 0.4 µM,106.994% and 100.864% and 100.549% and 126.212% and 118.079% and 125.703% and 101.139% and 105.018% and 104.304%
same,ClpC1-NTD peak area,[10]; conc. 0.4 µM,974818 and 1343173 and 762481 and 700950 and 757234 and 818245 and 783567 and 770572 and 1135273
same,% Response,[10]; conc. 33.3 µM,107.525% and 103.829% and 103.089% and 121.205% and 120.164% and 127.4% and 120.436% and 100.085% and 97.8128%
same,ClpC1-NTD peak area,[10]; conc. 33.3 µM,1099272 and 1301491 and 948418 and 890861 and 865884 and 830598 and 816002 and 754560 and 1171647
same,% Response,[10]; conc. 100.0 µM,99.5642% and 103.437% and 105.517% and 119.388% and 117.765% and 125.04% and 101.258% and 115.542% and 91.4636%
same,ClpC1-NTD peak area,[10]; conc. 100.0 µM,1282982 and 1406378 and 1339163 and 984807 and 916165 and 1033433 and 896176 and 856679 and 1974349
same,Caco-2 Int. Perm,Caco-2 monolayers,2.2
same,Influence of N-methylation on permeability,Caco-2 monolayers,1.6
same,efflux ratio,in vitro; Caco-2,3
same,Papp B→A,"in vitro; Caco-2, CACO permeability PEBA",2.6 ×10⁻⁶ cm/s
same,Papp A→B,"in vitro; Caco-2, Caco-2 permeability P (A-B)",1.3 ×10⁻⁶ cm/s
same,Papp B→A,"in vitro; Caco-2, Caco-2 permeability P (B-A)",3.1 ×10⁻⁶ cm/s
same,Microsomal Stability Rat QH,[1],38.300%
same,Microsomal Stability Rat,[1],38 %Qh
same,Kd,[2]; [13],1.1 ± 0.4 nM
same,Kd,"[2]; SPR, individual measurements (source data), read-out: KD ClpC1-NTD",2.02 nM and 1.58 nM and 1.15 nM (5×) and 0.995 nM and 1.06 nM (3×) and 1.21 nM (2×) and 1.23 nM (3×) and 0.859 nM and 1.01 nM (4×) and 1.13 nM (2×) and 1.16 nM (5×) and 0.401 nM and 0.981 nM and 0.95 nM and 1.03 nM and 0.866 nM and 1.14 nM (2×) and 1.54 nM and 0.99 nM and 1.26 nM and 1.53 nM (2×) and 1.07 nM (3×) and 1.05 nM (3×) and 1.09 nM (4×) and 1.84 nM and 1.39 nM (2×) and 1.44 nM and 1.47 nM (2×) and 0.934 nM and 1.1 nM (3×) and 0.723 nM and 2.22 nM and 0.892 nM and 0.91 nM and 1.75 nM (3×) and 0.741 nM and 0.702 nM and 1.25 nM (2×) and 0.729 nM and 0.721 nM and 1.67 nM and 1.63 nM and 1.37 nM and 1.92 nM and 1.99 nM and 1.17 nM and 1.08 nM (3×) and 0.583 nM and 1.11 nM (4×) and 0.666 nM and 0.718 nM and 0.833 nM and 0.74 nM and 0.783 nM and 0.822 nM and 0.734 nM and 0.671 nM and 1.6 nM and 1.52 nM (2×) and 1.45 nM (3×) and 1.33 nM (3×) and 1.28 nM (2×) and 1.31 nM and 0.952 nM (2×) and 0.854 nM and 1.2 nM (3×) and 0.728 nM and 0.717 nM and 1.59 nM and 1.51 nM and 0.903 nM and 0.9 nM (2×) and 0.985 nM and 1.18 nM and 0.911 nM and 0.904 nM and 1.12 nM and 0.85 nM and 0.908 nM and 1.02 nM and 3.37 nM and 0.912 nM and 0.781 nM and 0.973 nM and 0.999 nM and 0.958 nM and 0.76 nM and 0.886 nM and 0.843 nM and 1.04 nM (4×) and 1.24 nM and 0.917 nM and 0.907 nM and 0.838 nM
same,Kd,[2]; [14],1.15 nM (5×) and 1.06 nM (3×) and 1.21 nM (2×) and 1.23 nM (3×) and 1.01 nM (4×) and 1.13 nM (2×) and 1.16 nM (5×) and 1.14 nM (2×) and 1.53 nM (2×) and 1.07 nM (3×) and 1.05 nM (3×) and 1.09 nM (4×) and 1.39 nM (2×) and 1.47 nM (2×) and 1.1 nM (3×) and 1.75 nM (3×) and 1.25 nM (2×) and 1.08 nM (3×) and 1.11 nM (4×) and 1.52 nM (2×) and 1.45 nM (3×) and 1.33 nM (3×) and 1.28 nM (2×) and 0.952 nM (2×) and 1.2 nM (3×) and 0.9 nM (2×) and 1.04 nM (4×)
same,Kd,"[2]; SPR, read-out: ClpC1-NTD KD Mean ± SD",1.1 ± 0.4 nM
same,Hepatocyte Human,[11],36 %Qh
same,Hepatocyte Stability Human QH,[11],38.000%
same,Microsomal Stability Human QH,[3],65.700%
same,Microsomal Stability Human,[3],66 %Qh
same,MIC,"[4]; Mycobacterium tuberculosis, M. tuberculosis H37Rv strain, read-out: MIC Mtb H37Rv Mean ± SD",0.4 ± 0.1 µM
same,MIC,[4]; [15],0.4 ± 0.1 µM
same,MIC,"[4]; Mycobacterium tuberculosis, individual measurements (source data), read-out: Mtb MIC",0.39 µM
same,MIC,[4]; [16],0.39 µM
same,MIC,"[4]; individual measurements (source data), read-out: Mtb MIC",0.390 µM and 0.600 µM and 0.300 µM
same,MIC,[4]; [17],0.600 µM and 0.300 µM
same,MIC,Msm 607; [18],2.8 ± 0.4 µM
same,MIC,Msm 607; [19],3.12 µM
same,Msm 607 MIC,Msm 607,2.500 µM
same,Microsomal Stability Mouse QH,[5],56.100%
same,Microsomal Stability Mice,[5],56 %Qh
same,ClpC1 peak area,"[12]; 100 µM, Figure 5c, well replicates of 3 experiments",516046 and 317875 and 398263 and 302242 and 500156 and 40170.6 and 421518 and 401814 and 368135
same,intracellular degradation of ClpC1,"[12]; Msm #607, 24 h, result in words",did not induce degradation of ClpC1
